Experimental data published in patent US9243281B2, “Neuroprotective chemicals and methods for identifying and using same” (Board of Regents of The University of Texas System, priority 2013, dated 2016).

Assays:
[1] = system: hippocampal neurogenesis (Dentate Gyrus); experiment: in vivo neurogenesis assay (BrdU+ cells in dentate gyrus); design: species or system mice; conditions: living mice; vehicle (DMSO) 7.3
Excerpt: The screen was simple in concept. With help from chemists in the Department of Biochemistry at UTSWMC, we selected 1,000 druglike chemicals from the 250,000 compounds in our high throughput screening center. The compounds were selected to preserve representative chemical diversity of the entire library. They were further selected to enhance the representation of chiral molecules, and to avoid untoward chemical properties such as reactive moieties. The 1,000 molecules were randomly pooled into groups of ten, and each pool was administered directly into the left ventricle of two adult mice. Intracranial delivery was facilitated by stereotactic positioning of a canula fed directly by an Alzet mini-pump containing the mixture of ten chemicals. The drug mixture was administered over a week-long period at concentrations anticipated to deliver mid-nanomolar levels of the ten test compounds. Daily injections of the thymidine analog, bromodeoxyuridine (BrdU), were coadministered in order to monitor the formation of new hippocampal nerve cells. Following compound administration, animals were sacrificed such that brain tissue could be recovered, sectioned and stained with antibodies to BrdU. […]

[2] = target: T1, p70 (NAMPT) (Homo sapiens, UniProt P43490); experiment: binding competition for photo-crosslinking of P7C3-S326 to p70 in H2122 cells; conditions: 0.3 μM P7C3-S326 plus 5 μM competitor, p70 band intensity, P7C3-S326 alone compared with plus competitor, vehicle 1.0
T1 construct: endogenous in cells; host or cells: H2122 lung cancer cells
T1 sequence (P43490 whole entry): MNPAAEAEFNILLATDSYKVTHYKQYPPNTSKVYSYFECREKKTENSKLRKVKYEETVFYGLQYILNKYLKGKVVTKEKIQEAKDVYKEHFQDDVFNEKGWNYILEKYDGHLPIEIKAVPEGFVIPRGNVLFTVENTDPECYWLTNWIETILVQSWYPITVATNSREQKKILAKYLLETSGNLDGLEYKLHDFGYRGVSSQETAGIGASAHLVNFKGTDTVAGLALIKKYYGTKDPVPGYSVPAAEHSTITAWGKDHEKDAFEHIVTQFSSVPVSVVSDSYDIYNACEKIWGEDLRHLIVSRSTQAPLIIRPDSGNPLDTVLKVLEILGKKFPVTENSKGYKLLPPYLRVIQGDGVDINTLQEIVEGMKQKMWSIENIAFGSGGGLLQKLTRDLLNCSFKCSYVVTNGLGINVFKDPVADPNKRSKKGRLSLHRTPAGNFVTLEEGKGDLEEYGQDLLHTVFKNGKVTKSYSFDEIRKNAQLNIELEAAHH
Protocol: Cultured cells were co-exposed to P7C3-S326 (0.3 uM) and the individual P7C3 variants (5 uM), exposed to UV light, lysed, clicked to a fluorescent dye and run on SDS gels (FIG. 11).
P7C3-S326 was diluted to 0.3 μM in culture medium to treat H2122 cells. After incubation at 37° C. for 2 hours, H2122 cells were irradiated for 15 minutes under 306 nm ultraviolet light in a Stratalinker 2400 (Stratagene). Cells were then harvested by dissolving in 1% SDS lysis buffer 50 mM HEPES, pH 8.0, 2 mM MgCl2, 10 mM KCl, 1% SDS, 50 units/ml of Benzonase (Sigma), supplemented with Sigmafast protease inhibitor (Sigma).
The reaction was incubated at room temperature with constant agitation at 1,000 rpm on a thermomixer (Eppendorf) for 1 hour. Samples were then mixed with SDS sample loading buffer and loaded on an 8% SDS-PAGE gel, separated, and imaged using a Typhoon imager (filter settings: excitation 533 nm, emission 555 nm, and high sensitivity).
H2122 cells were incubated with the P7C3-S326 (0.3 μM) in the absence or presence of P7C3 analogs for 2 hours following by UV crosslinking. […] The samples were run on SDS-PAGE gels scanned using a Typhoon Imager. The p70 band intensity was analyzed and quantified by Image J, and the relative intensity in each assay was normalized to that of the DMSO control.

Compound: OC(CNc1ccccc1)Cn1c2ccc(Br)cc2c2cc(Br)ncc21 (stereo not drawn) [S30]
- Neurogenesis # BrdU+ Cells (X10E06)/mm3 Dentate Gyrus [1]: 14.3 (X10E06)/mm3
- Binding competition [2]: 3.3

Compound: COc1cccc(S(=O)(=O)CC(O)Cn2c3ccc(Br)cc3c3cc(Br)ccc32)c1 (stereo not drawn) [S82]
- Neurogenesis # BrdU+ Cells (X10E06)/mm3 Dentate Gyrus [1]: 11.8 (X10E06)/mm3
- Binding competition [2]: 2.3

Compound: OCc1cc2c(cn1)[nH]c1ccc(Br)cc12 [S204]
- Neurogenesis # BrdU+ Cells (X10E06)/mm3 Dentate Gyrus [1]: 14.2 (X10E06)/mm3
- Binding competition [2]: 2.3

Compound: CC(C)(C)OC(=O)CCOCCOCCOCCOc1cccc(NCC(O)Cn2c3ccc(Br)cc3c3cc(Br)ccc32)c1 (stereo not drawn) [S157]
- Neurogenesis # BrdU+ Cells (X10E06)/mm3 Dentate Gyrus [1]: 10.2 (X10E06)/mm3
- Binding competition [2]: 1.5

Compound: O=C(Cn1c2ccc(Br)cc2c2cc(Br)ccc21)NO [S231]
- Neurogenesis # BrdU+ Cells (X10E06)/mm3 Dentate Gyrus [1]: 13.1 (X10E06)/mm3
- Binding competition [2]: 1.7

Compound: O=C(O)Cn1c2ccc(Br)cc2c2cc(C(=O)O)ncc21 [S227]
- Neurogenesis # BrdU+ Cells (X10E06)/mm3 Dentate Gyrus [1]: 12.9 (X10E06)/mm3
- Binding competition [2]: 0.9

Compound: O=S(=O)(CC(O)Cn1c2ccc(Br)cc2c2cc(Br)ccc21)c1cccc(O)c1 (stereo not drawn) [S93]
- Neurogenesis # BrdU+ Cells (X10E06)/mm3 Dentate Gyrus [1]: 11.9 (X10E06)/mm3
- Binding competition [2]: 1.4

Compound: Cc1cc2c3cc(Br)ccc3n(CC(O)COc3ccccc3)c2cn1 (stereo not drawn) [S190]
- Neurogenesis # BrdU+ Cells (X10E06)/mm3 Dentate Gyrus [1]: 8.4 (X10E06)/mm3
- Binding competition [2]: 4.1

Compound: COc1cccc(NCC(O)Cn2c3ccc(C)cc3c3cc(C)ccc32)c1 (stereo not drawn) [S2]
- Neurogenesis # BrdU+ Cells (X10E06)/mm3 Dentate Gyrus [1]: 8.1 (X10E06)/mm3
- Binding competition [2]: 3.7

Compound: CN(C)C(=O)Cn1c2ccc(Br)cc2c2cc(Br)ccc21 [S215]
- Neurogenesis # BrdU+ Cells (X10E06)/mm3 Dentate Gyrus [1]: 8.3 (X10E06)/mm3
- Binding competition [2]: 3.6

Compound: O=S(=O)(CC(O)Cn1c2ccc(Br)cc2c2cc(Br)ccc21)c1ccc(OCCF)cc1 (stereo not drawn) [S156]
- Neurogenesis # BrdU+ Cells (X10E06)/mm3 Dentate Gyrus [1]: 15.0 (X10E06)/mm3
- Binding competition [2]: 1.2

Compound: COc1ccc(NCC(F)Cn2c3ccc(Br)cc3c3cc(Br)ccc32)cc1 (stereo not drawn) [S60]
- Neurogenesis # BrdU+ Cells (X10E06)/mm3 Dentate Gyrus [1]: 12.6 (X10E06)/mm3
- Binding competition [2]: 1.4

Compound: CCOC(=O)c1ncc2c(n1)c1ccccc1n2S(=O)(=O)c1ccc(C)cc1 [S246]
- Neurogenesis # BrdU+ Cells (X10E06)/mm3 Dentate Gyrus [1]: 14.5 (X10E06)/mm3
- Binding competition [2]: 1.3

Compound: N#Cc1ccc2c(c1)c1cc(C#N)ccc1n2CC(O)CSc1ccccc1 (stereo not drawn) [S110]
- Neurogenesis # BrdU+ Cells (X10E06)/mm3 Dentate Gyrus [1]: 10.5 (X10E06)/mm3
- Binding competition [2]: 6.2

Compound: OC(CNc1cccc2ccccc12)Cn1c(-c2ccccc2)cc2ccccc21 (stereo not drawn) [S185]
- Neurogenesis # BrdU+ Cells (X10E06)/mm3 Dentate Gyrus [1]: 12.6 (X10E06)/mm3
- Binding competition [2]: 1.5

Compound: Cc1cc(Br)cc2c3cc(Br)cc(C)c3n(CC(O)CNc3ccccc3)c12 (stereo not drawn) [S161]
- Neurogenesis # BrdU+ Cells (X10E06)/mm3 Dentate Gyrus [1]: 11.4 (X10E06)/mm3
- Binding competition [2]: 3.1

Compound: NC(Cc1c[nH]c2ccc(Br)cc12)C(=O)O (stereo not drawn) [S207]
- Neurogenesis # BrdU+ Cells (X10E06)/mm3 Dentate Gyrus [1]: 16.2 (X10E06)/mm3
- Binding competition [2]: 1.1

Compound: O[C@@H](COc1ccccc1)Cn1c2ccc(Br)cc2c2cc(Br)ccc21 [S40]
- Neurogenesis # BrdU+ Cells (X10E06)/mm3 Dentate Gyrus [1]: 8.1 (X10E06)/mm3
- Binding competition [2]: 2.8

Compound: NC(=O)c1ccc2[nH]c3ccc(Br)cc3c2c1 [S223]
- Neurogenesis # BrdU+ Cells (X10E06)/mm3 Dentate Gyrus [1]: 7.9 (X10E06)/mm3
- Binding competition [2]: 3.0

Compound: OC(COc1ccccc1)Cn1c2c(c3cc(Br)ccc31)CNCC2 (stereo not drawn) [S105]
- Neurogenesis # BrdU+ Cells (X10E06)/mm3 Dentate Gyrus [1]: 10.8 (X10E06)/mm3
- Binding competition [2]: 1.2

Compound: N#Cc1ccc2[nH]c3ccc(Br)cc3c2c1 [S216]
- Neurogenesis # BrdU+ Cells (X10E06)/mm3 Dentate Gyrus [1]: 13.0 (X10E06)/mm3
- Binding competition [2]: 4.4

Compound: [N-]=[N+]=Nc1cccc(NCC(O)Cn2c3ccc(Br)cc3c3cc(Br)ccc32)c1 (stereo not drawn) [S36]
- Neurogenesis # BrdU+ Cells (X10E06)/mm3 Dentate Gyrus [1]: 8.9 (X10E06)/mm3
- Binding competition [2]: 3.1

Compound: Cc1cc(C)n(CC(O)Cn2c3ccc(Br)cc3c3cc(Br)ccc32)n1 (stereo not drawn) [S25]
- Neurogenesis # BrdU+ Cells (X10E06)/mm3 Dentate Gyrus [1]: 7.0 (X10E06)/mm3
- Binding competition [2]: 1.4

Compound: COc1cccc(NCC(O)CN2c3ccc(Br)cc3CCc3cc(Br)ccc32)c1 (stereo not drawn) [S76]
- Neurogenesis # BrdU+ Cells (X10E06)/mm3 Dentate Gyrus [1]: 14.2 (X10E06)/mm3
- Binding competition [2]: 1.1
